In patent publication US10550112B2, “Pyrimidines as EGFR inhibitors and methods of treating disorders” (Dana-Farber Cancer Institute, Inc., priority 2015, dated 2020) one finds EC50 data, which are given here for 19 compounds.

What all share (type): cell-based, Murine
Experiment [1] has as its target EGFR wild type Ba/F3 cell line (Homo sapiens, UniProt P00533, cells depend on it, form not given). Description: Ba/F3 cell proliferation MTS assay, EGFR wild type. Conditions: 72 hours. (In general: Formazan colour is commonly taken as a measure of viable cells.)
Experiment [2] addresses HER2 InsYVMA Ba/F3 cell line (Homo sapiens, UniProt P04626, DUP772-775, cells depend on it). The experiment is described as follows: Ba/F3 cell proliferation MTS assay, HER2 InsYVMA.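 Note: murine Ba/F3 cells engineered to carry mutant HER2, viability read colorimetrically by MTS after 72 h of exposure, EC50 from sigmoidal non-linear regression of dose response.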 Conditions: 72 hours.
Experimental: (§1) Murine Ba/F3 cells engineered to express mutant and wild type EGFR or HER2 protein were used to perform single drug screens. Cell viability was assessed after 72 hours of compound exposure using the colorimetric cell proliferation MTS assay kit (Promega).
(§2) The curves were fitted using a non-linear regression model with a sigmoidal dose response.
The target of experiment [3] is HER2 wild type Ba/F3 cell line (Homo sapiens, UniProt P04626). The experiment is described as follows: Ba/F3 cell proliferation MTS assay, HER2 wild type. Particulars: HER2 wild type Ba/F3 cells, 72 hours.
Sequence of HER2 wild type Ba/F3 cell line (P04626 whole entry, stated change not applied): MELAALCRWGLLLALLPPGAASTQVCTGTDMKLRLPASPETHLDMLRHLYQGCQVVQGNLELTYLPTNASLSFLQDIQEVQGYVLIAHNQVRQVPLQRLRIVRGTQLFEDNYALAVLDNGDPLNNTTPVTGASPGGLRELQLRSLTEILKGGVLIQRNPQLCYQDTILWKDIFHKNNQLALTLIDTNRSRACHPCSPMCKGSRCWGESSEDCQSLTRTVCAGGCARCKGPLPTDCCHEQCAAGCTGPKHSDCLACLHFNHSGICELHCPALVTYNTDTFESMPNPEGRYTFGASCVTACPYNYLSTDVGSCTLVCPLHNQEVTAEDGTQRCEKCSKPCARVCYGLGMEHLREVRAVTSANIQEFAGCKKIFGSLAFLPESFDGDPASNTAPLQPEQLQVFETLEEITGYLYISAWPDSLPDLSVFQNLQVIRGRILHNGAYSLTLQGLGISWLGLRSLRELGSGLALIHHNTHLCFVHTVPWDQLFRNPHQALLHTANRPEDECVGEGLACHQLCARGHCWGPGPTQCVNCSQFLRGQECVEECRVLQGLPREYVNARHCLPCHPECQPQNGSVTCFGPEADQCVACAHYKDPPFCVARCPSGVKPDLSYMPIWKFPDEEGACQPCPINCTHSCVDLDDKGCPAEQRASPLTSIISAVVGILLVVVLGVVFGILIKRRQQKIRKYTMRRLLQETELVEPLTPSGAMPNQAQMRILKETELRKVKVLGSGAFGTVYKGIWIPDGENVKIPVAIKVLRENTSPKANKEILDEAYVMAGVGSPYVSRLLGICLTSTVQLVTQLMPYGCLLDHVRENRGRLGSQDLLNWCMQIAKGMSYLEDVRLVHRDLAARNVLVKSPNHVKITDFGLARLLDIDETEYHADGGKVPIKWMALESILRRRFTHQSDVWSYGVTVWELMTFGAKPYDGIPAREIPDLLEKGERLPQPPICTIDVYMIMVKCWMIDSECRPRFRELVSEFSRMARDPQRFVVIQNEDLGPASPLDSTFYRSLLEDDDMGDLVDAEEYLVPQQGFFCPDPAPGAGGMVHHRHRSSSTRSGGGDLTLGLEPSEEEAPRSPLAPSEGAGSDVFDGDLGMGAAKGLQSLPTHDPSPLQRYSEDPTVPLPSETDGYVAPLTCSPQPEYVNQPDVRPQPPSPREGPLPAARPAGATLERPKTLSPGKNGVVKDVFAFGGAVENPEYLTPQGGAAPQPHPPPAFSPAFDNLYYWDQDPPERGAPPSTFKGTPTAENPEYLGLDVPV
Experimental: as §1, §2
Experiment [4] has as its target EGFR InsGY Ba/F3 cell line (Homo sapiens, UniProt P00533, DELINS770-770GY, cells depend on it). The experiment is described as follows: Ba/F3 cell proliferation MTS assay, EGFR InsGY. Particulars: EGFR InsGY (D770delinsGY) Ba/F3 cells, 72 hours.
Experimental: (§3) Different EGFR exon 20 insertion mutations were introduced via site directed mutagenesis into full length EGFR using the Quick Change Site-Directed Mutagenesis kit (Stratagene; La Jolla, Calif.) according to the manufacturer's instructions. All constructs were confirmed by DNA sequencing. The constructs were shuttled into the retroviral vector JP1540 using the BD Creator™ System (BD Biosciences). […] Stable clones were obtained by selection in puromycin (2 μg/ml) and growth in IL-3 free media.
as §1, §2
The target in experiment [5] is EGFR InsSVD Ba/F3 cell line (Homo sapiens, UniProt P00533, DUP768-770, cells depend on it). The experiment is described as follows: Ba/F3 cell proliferation MTS assay, EGFR InsSVD. Particulars: EGFR InsSVD (D770_N771insSVD) Ba/F3 cells, 72 hours.
Sequence of EGFR InsSVD Ba/F3 cell line (P00533 with tags, fused parts or gaps DUP768-770): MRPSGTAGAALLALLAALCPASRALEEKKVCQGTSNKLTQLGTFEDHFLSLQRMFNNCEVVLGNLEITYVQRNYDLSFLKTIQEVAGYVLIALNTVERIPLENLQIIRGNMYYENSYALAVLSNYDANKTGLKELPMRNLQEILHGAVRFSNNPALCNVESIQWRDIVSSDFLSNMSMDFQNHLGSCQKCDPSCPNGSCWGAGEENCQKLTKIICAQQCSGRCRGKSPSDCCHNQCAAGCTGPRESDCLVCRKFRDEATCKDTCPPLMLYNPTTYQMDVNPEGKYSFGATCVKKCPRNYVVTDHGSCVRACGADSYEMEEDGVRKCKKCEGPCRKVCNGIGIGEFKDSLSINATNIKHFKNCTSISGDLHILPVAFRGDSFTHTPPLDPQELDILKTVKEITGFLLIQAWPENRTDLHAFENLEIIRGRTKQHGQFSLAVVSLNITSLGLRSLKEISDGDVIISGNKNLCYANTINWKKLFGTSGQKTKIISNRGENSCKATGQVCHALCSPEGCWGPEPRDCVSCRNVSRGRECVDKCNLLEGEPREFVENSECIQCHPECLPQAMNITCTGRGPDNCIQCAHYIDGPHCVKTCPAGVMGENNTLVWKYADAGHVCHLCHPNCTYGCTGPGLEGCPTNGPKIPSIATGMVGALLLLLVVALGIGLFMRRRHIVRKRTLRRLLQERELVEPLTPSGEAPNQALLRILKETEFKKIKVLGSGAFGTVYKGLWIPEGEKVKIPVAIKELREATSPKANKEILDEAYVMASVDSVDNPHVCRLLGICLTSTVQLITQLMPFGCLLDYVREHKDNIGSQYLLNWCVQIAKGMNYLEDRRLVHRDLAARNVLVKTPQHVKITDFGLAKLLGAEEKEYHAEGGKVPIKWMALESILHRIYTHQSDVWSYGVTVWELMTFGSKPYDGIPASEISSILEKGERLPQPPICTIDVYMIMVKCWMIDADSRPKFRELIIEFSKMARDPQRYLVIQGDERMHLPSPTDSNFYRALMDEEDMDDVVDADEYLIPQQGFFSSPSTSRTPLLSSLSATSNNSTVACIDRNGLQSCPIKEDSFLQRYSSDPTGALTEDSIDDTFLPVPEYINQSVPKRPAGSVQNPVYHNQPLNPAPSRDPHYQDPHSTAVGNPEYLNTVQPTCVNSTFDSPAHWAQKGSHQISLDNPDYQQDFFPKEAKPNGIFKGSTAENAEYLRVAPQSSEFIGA
Experimental: as §3, §1, §2

Sequence of EGFR InsGY Ba/F3 cell line (P00533 with tags, fused parts or gaps DELINS770-770GY): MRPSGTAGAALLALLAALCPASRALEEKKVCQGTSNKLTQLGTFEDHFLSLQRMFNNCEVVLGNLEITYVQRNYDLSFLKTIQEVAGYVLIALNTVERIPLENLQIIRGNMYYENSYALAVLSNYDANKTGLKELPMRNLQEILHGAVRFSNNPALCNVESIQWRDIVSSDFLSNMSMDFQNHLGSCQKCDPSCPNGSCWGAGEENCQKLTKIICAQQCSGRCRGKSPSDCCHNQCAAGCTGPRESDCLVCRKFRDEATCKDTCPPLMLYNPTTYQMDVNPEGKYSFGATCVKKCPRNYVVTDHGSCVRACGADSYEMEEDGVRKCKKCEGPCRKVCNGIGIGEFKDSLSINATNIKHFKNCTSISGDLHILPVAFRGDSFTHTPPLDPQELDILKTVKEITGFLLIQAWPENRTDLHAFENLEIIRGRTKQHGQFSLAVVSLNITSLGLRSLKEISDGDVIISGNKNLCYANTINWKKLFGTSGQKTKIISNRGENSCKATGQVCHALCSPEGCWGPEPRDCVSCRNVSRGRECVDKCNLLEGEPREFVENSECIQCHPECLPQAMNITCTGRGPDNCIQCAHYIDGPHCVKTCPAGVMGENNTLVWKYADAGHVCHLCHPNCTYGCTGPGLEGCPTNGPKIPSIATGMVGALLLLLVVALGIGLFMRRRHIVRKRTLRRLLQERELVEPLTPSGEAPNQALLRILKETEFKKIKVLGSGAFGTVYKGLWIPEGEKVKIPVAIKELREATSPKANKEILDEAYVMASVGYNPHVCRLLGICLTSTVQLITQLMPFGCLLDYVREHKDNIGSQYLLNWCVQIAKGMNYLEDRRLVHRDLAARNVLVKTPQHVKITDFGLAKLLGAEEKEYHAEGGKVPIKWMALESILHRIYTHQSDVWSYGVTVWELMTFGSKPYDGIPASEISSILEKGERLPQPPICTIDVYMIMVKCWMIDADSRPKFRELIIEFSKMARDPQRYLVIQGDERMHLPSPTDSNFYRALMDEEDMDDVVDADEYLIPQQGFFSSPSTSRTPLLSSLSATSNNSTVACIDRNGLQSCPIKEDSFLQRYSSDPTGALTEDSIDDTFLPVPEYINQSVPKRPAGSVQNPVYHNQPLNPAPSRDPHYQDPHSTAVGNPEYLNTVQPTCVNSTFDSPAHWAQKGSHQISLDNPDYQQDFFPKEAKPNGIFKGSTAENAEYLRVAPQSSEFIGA
Sequence of EGFR wild type Ba/F3 cell line (P00533 whole entry, stated change not applied): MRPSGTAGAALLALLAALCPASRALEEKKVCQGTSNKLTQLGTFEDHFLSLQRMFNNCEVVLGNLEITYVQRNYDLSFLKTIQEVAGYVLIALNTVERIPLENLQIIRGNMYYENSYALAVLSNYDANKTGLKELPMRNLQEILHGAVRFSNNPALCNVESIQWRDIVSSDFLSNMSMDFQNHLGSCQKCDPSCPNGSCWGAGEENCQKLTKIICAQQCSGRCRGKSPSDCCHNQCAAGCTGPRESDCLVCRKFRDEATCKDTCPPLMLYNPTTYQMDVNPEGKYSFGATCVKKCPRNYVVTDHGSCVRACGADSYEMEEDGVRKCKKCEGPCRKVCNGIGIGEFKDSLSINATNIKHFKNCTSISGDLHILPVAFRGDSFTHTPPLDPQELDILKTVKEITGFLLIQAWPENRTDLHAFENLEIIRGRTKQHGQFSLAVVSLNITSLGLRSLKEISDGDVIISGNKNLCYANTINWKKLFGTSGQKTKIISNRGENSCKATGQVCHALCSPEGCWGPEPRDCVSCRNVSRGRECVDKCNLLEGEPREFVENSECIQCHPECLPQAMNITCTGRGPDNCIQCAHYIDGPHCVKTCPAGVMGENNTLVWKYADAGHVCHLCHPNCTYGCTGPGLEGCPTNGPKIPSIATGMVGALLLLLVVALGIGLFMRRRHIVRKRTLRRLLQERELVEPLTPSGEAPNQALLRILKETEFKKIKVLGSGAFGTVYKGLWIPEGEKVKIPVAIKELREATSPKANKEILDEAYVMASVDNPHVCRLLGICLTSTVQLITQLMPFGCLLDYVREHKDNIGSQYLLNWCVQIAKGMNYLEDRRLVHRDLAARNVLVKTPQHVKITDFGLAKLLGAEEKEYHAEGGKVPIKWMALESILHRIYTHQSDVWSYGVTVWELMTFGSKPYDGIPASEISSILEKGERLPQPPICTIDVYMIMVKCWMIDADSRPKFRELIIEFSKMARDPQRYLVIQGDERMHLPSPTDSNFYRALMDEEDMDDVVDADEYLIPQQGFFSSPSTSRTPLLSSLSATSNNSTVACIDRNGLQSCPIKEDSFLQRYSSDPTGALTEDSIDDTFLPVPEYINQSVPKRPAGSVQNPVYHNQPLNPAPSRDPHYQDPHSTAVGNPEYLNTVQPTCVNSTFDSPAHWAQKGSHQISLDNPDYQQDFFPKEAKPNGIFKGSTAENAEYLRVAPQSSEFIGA

As for `C=CC(=O)Nc1cccc(N(C(=O)OCc2cccc(F)c2)c2ccnc(Nc3ccn(C)n3)n2)c1` [Compound I-2, 3-fluorobenzyl (3-acrylamidophenyl)(2-((1-methyl-1H-pyrazol-3-yl)amino)pyrimidin-4-yl)carbamate], the EC50 in experiment [1] is less than 0.1 µM; in experiment [2] it was 0.1 to 0.5 µM; in experiment [3] it was less than 0.1 µM; in experiment [4], less than 0.1 µM; in experiment [5], less than 0.1 µM.

On to `C=CC(=O)Nc1cccc(N(C(=O)OCc2cccc(F)c2)c2ccnc(Nc3cnn(C)c3)n2)c1` [Compound I-3, 3-fluorobenzyl (3-acrylamidophenyl)(2-((1-methyl-1H-pyrazol-4-yl)amino)pyrimidin-4-yl)carbamate], for which the concentration giving a half-maximal response (EC50) in experiment [1], in experiment [2], in experiment [3], in experiment [4] and in experiment [5] was less than 0.1 µM throughout.

For `C=CC(=O)Nc1cccc(N(C(=O)OCc2ccc(F)cc2)c2ccnc(Nc3ccn(C)n3)n2)c1` [Compound I-4, 4-fluorobenzyl (3-acrylamidophenyl)(2-((1-methyl-1H-pyrazol-3-yl)amino)pyrimidin-4-yl)carbamate], the EC50 in experiment [1], in experiment [2], in experiment [3], in experiment [4] and in experiment [5] was less than 0.1 µM throughout.

On to `C=CC(=O)Nc1cccc(N(C(=O)OCc2ccc(F)cc2)c2ccnc(Nc3cnn(C)c3)n2)c1` [Compound I-5, 4-fluorobenzyl (3-acrylamidophenyl)(2-((1-methyl-1H-pyrazol-4-yl)amino)pyrimidin-4-yl)carbamate], for which the EC50 in experiment [1], in experiment [2], in experiment [3], in experiment [4] and in experiment [5] was less than 0.1 µM throughout.

Take `C=CC(=O)Nc1cccc(N(C(=O)OCc2cc3ccccc3s2)c2ccnc(Nc3ccn(C)n3)n2)c1` [Compound I-6, benzo[b]thiophen-2-ylmethyl (3-acrylamidophenyl)(2-((1-methyl-1H-pyrazol-3-yl)amino)pyrimidin-4-yl)carbamate]: the concentration for a half-maximal effect (EC50) in experiment [1] was 0.5 to 1 µM; in experiment [2] it was more than 1 µM; in experiment [3], 0.5 to 1 µM; in experiment [4], 0.1 to 0.5 µM; in experiment [5] it was 0.5 to 1 µM.

`C=CC(=O)Nc1cccc(N(C(=O)OCc2cc3ccccc3s2)c2ccnc(Nc3cnn(C)c3)n2)c1` [Compound I-7, benzo[b]thiophen-2-ylmethyl (3-acrylamidophenyl)(2-((1-methyl-1H-pyrazol-4-yl)amino)pyrimidin-4-yl)carbamate]: the EC50 in experiment [1] is 0.1 to 0.5 µM; in experiment [2] it was 0.5 to 1 µM; in experiment [3] it was 0.1 to 0.5 µM; in experiment [4] it was less than 0.1 µM; in experiment [5], 0.1 to 0.5 µM.

Take `C=CC(=O)Nc1cccc(N(C(=O)OCc2csc3ccccc23)c2ccnc(Nc3ccn(C)n3)n2)c1` [Compound I-18, benzo[b]thiophen-3-ylmethyl (3-acrylamidophenyl)(2-((1-methyl-1H-pyrazol-3-yl)amino)pyrimidin-4-yl)carbamate]: the EC50 in experiment [1], in experiment [3] and in experiment [4] was more than 1 µM in each case.

For the compound `C=CC(=O)Nc1cccc(N(C(=O)OCc2ccc(F)cc2)c2ccnc(Nc3cnn(CCN4CCOCC4)c3)n2)c1` [Compound I-20, 4-fluorobenzyl (3-acrylamidophenyl)(2-((1-(2-morpholinoethyl)-1H-pyrazol-4-yl)amino)pyrimidin-4-yl)carbamate], the 50% effective concentration (EC50) in experiment [1] was less than 0.1 µM; in experiment [2], less than 0.1 µM; in experiment [3], less than 0.1 µM; in experiment [4], less than 0.1 µM; in experiment [5], 0.1 to 0.5 µM.

On to `C=CC(=O)Nc1cccc(N(C(=O)OCc2ccc(F)cc2)c2ccnc(Nc3cnn(C)c3C)n2)c1` [Compound I-22, 4-fluorobenzyl (3-acrylamidophenyl)(2-((1,5-dimethyl-1H-pyrazol-4-yl)amino)pyrimidin-4-yl)carbamate], for which the half-maximal effective concentration (EC50) in experiment [1], in experiment [2], in experiment [3], in experiment [4] and in experiment [5] was less than 0.1 µM in each case.

As to `C=CC(=O)Nc1cccc(N(C(=O)OCc2ccc(F)cc2)c2ccnc(Nc3cnn(C)c3C(F)(F)F)n2)c1` [Compound I-23, 4-fluorobenzyl (3-acrylamidophenyl)(2-((1-methyl-5-(trifluoromethyl)-1H-pyrazol-4-yl)amino)pyrimidin-4-yl)carbamate], the EC50 is less than 0.1 µM in experiment [1]; 0.1 to 0.5 µM in experiment [2]; less than 0.1 µM in experiment [3]; 0.1 to 0.5 µM in experiment [4]; 0.1 to 0.5 µM in experiment [5].

For the compound `Cn1cc(Nc2nccc(N(C(=O)OCc3ccc(F)cc3)c3cccc(NC(=O)/C=C/CN4CCCCC4)c3)n2)cn1` [Compound I-24, 4-fluorobenzyl (E)-(2-((1-methyl-1H-pyrazol-4-yl)amino)pyrimidin-4-yl)(3-(4-(piperidin-1-yl)but-2-enamido)phenyl)carbamate], the EC50 is less than 0.1 µM in experiment [1]; less than 0.1 µM in experiment [2]; less than 0.1 µM in experiment [3]; 0.1 to 0.5 µM in experiment [4]; 0.5 to 1 µM in experiment [5].

As to `Cn1cc(Nc2nccc(N(C(=O)OCc3ccc(F)cc3)c3cccc(NC(=O)/C=C/CN4CCC(O)CC4)c3)n2)cn1` [Compound I-25, 4-fluorobenzyl (E)-(3-(4-(4-hydroxypiperidin-1-yl)but-2-enamido)phenyl)(2-((1-methyl-1H-pyrazol-4-yl)amino)pyrimidin-4-yl)carbamate], the EC50 in experiment [1] was 0.1 to 0.5 µM; in experiment [2] it was more than 1 µM; in experiment [3], 0.1 to 0.5 µM.

With `Cn1cc(Nc2nccc(N(C(=O)OCc3ccc(F)cc3)c3cccc(NC(=O)/C=C/CN4CCOCC4)c3)n2)cn1` [Compound I-26, 4-fluorobenzyl (E)-(2-((1-methyl-1H-pyrazol-4-yl)amino)pyrimidin-4-yl)(3-(4-morpholinobut-2-enamido)phenyl)carbamate], the half-maximal effective concentration (EC50) is less than 0.1 µM in experiment [1]; 0.1 to 0.5 µM in experiment [2]; less than 0.1 µM in experiment [3]; 0.1 to 0.5 µM in experiment [4]; 0.5 to 1 µM in experiment [5].

Regarding `Cn1cc(Nc2nccc(N(C(=O)OCc3ccc(F)cc3)c3cccc(NC(=O)/C=C/CN4CCCCCC4)c3)n2)cn1` [Compound I-27, 4-fluorobenzyl (E)-(3-(4-(azepan-1-yl)but-2-enamido)phenyl)(2-((1-methyl-1H-pyrazol-4-yl)amino)pyrimidin-4-yl)carbamate], the half-maximal effective concentration (EC50) in experiment [1] is less than 0.1 µM; in experiment [2], less than 0.1 µM; in experiment [3], less than 0.1 µM; in experiment [4], 0.5 to 1 µM; in experiment [5] it was 0.5 to 1 µM.

In the case of `CN(C)C/C=C/C(=O)Nc1cccc(N(C(=O)OCc2ccc(F)cc2)c2ccnc(Nc3cnn(C)c3)n2)c1` [Compound I-28, 4-fluorobenzyl (E)-(3-(4-(dimethylamino)but-2-enamido)phenyl)(2-((1-methyl-1H-pyrazol-4-yl)amino)pyrimidin-4-yl)carbamate], the EC50 in experiment [1] is less than 0.1 µM; in experiment [2], less than 0.1 µM; in experiment [3] it was less than 0.1 µM; in experiment [4] it was 0.5 to 1 µM; in experiment [5] it was more than 1 µM.

As to `C=CC(=O)Nc1cccc(N(C(=O)OCc2ccc(F)cc2F)c2ccnc(Nc3cnn(C)c3)n2)c1` [Compound I-29, 2,4-difluorobenzyl (3-acrylamidophenyl)(2-((1-methyl-1H-pyrazol-4-yl)amino)pyrimidin-4-yl)carbamate], the EC50 in experiment [1], in experiment [2], in experiment [3], in experiment [4] and in experiment [5] was less than 0.1 µM throughout.

Consider `C=CC(=O)Nc1cccc(N(C(=O)OCc2ccc(F)cc2)c2ccnc(Nc3cnn(C4CCN(C)CC4)c3)n2)c1` [Compound I-30, 4-fluorobenzyl (3-acrylamidophenyl)(2-((1-(1-methylpiperidin-4-yl)-1H-pyrazol-4-yl)amino)pyrimidin-4-yl)carbamate], for which the EC50 in experiment [1], in experiment [2], in experiment [3], in experiment [4] and in experiment [5] was less than 0.1 µM throughout.

With `C=CC(=O)Nc1cccc(N(C(=O)OCc2ccc(F)cc2)c2ccnc(Nc3cnn(CC(=O)NC)c3)n2)c1` [Compound I-31, 4-fluorobenzyl (3-acrylamidophenyl)(2-((1-(2-(methylamino)-2-oxoethyl)-1H-pyrazol-4-yl)amino)pyrimidin-4-yl)carbamate], the half-maximal effective concentration (EC50) in experiment [1] was less than 0.1 µM; in experiment [2] it was less than 0.1 µM; in experiment [3], less than 0.1 µM; in experiment [4], 0.1 to 0.5 µM; in experiment [5], 0.1 to 0.5 µM.

On to `C=CC(=O)Nc1cccc(N(C(=O)OCc2ccc(F)cc2)c2ccnc(Nc3cnn(C4CCN(C)C4)c3)n2)c1` (stereo not shown) [Compound I-32, 4-fluorobenzyl (3-acrylamidophenyl)(2-((1-(1-methylpyrrolidin-3-yl)-1H-pyrazol-4-yl)amino)pyrimidin-4-yl)carbamate], for which the EC50 in experiment [1], in experiment [2], in experiment [3], in experiment [4] and in experiment [5] was less than 0.1 µM each time.

By EC50 is commonly meant the concentration needed to bring the measured effect to its halfway point.
